Laboratory results: PMC11503492, “Activity-Based DNA-Encoded Library Screening for Selective Inhibitors of Eukaryotic Translation” (ACS Central Science, 2024)

Test system: PCSK9-FS[1:33]-GFP translation
Assay: Microfluidic activity-based DEL counter screen in WG IVTT droplets, PCSK9-FS[1:33]-GFP, hit k class by sequencing
Format: biochemical, wheat germ
Conditions: number of times hit structure observed on distinct beads, summed across PCSK9-FS[1:33]-GFP screens; *** p < 0.001, NS not significant
Protocol: The validated PF846-inspired library was screened to discover novel translation inhibitors. DEL beads were encapsulated in microfluidic droplets of WG IVTT and irradiated with UV in flow to liberate DEL members into the droplets. The photodosed droplets were incubated and sorted based on fluorescence.[25] PCSK9[1:33]-GFP was chosen as a proof-of-concept target, and PCSK9-FS[1:33]-GFP was used as a counter screen target to identify nonselective compounds. PC-HygB were mixed with DEL beads and screened in the microfluidic device for inhibitors of translation. […] Droplet generation, bead introduction, and library and control bead hit rate were uniform during the screen (Figure 3, bottom).
Hit collection DNA tags from the PCSK9[1:33]-GFP and PCSK9-FS[1:33]-GFP screens were sequenced to deduce the structures of molecules that inhibited PCSK9[1:33]- or PCSK9-FS[1:33]-GFP translation. Hit structure k class, the number of times a given hit structure is observed on distinct beads,[31] was summed across screens and visualized as a heat map (Figure 4A). […] The combined hit sets for the two templates contained 121 unique hits with k ≥ 17 across the two screening campaigns. The most frequently observed cycle 1 starter BBs were 1 and 2, which share an 8-methylisoquinoline moiety, but differ in the vector for cycle 2 carboxylic acid connection, and 3, which contains an N-methylazaindole moiety. The most frequently identified cycle 2 tails included carboxylic acids 4–7. […] Substituted pyrazole 6 and pyridyl-benzimidazole 7 also appeared frequently with the aforementioned starters. There were 5 hits that appeared with high k class in both PCSK9[1:33]-GFP and PCSK9[1:33]-FS-GFP screening campaigns.
319 the droplet experiment to homogenize the bead suspension. Syringes were connected to
320 fluidic inputs with microbore Tygon tubing (0.01” x 0.03” IC × OD). Droplet generation oil
321 (OIL1) was 1% picosurf in HFE. Spacing (OIL2) and pinning (OIL3) oils were neat HFE.
322 Assay reagents were driven by displacement syringe pumps (Legato 100, KD Scientific,
323 Holliston, MA) through the circuit. OIL2 and OIL3 were initially flowed (22 µL/min and
324 12 µL/min, respectively) and hit and waste shunt tubing were clamped to backfill the
325 circuit. Once the incubator was filled with oil, the hit and waste tubing were unclamped
326 and back shunts were clamped. AQ1, AQ2, and OIL1 flows were initiated (960 nL/min,
327 640 nL/min, and 1200 nL/min, respectively) and held constant during the screen. Once
328 droplet generation equilibrated (∼10 min), the main shunt was clamped and droplets
329 started to fill the incubator. When droplets filled the incubator and entered the sorting
330 region, data acquisition and screening was initiated.
331 The custom confocal LIF detection setup and LabView code were previously described.S3
332 Briefly, photon counting PMTs (H7828, Hamamatsu, Middlesex, NJ) were used to detect
333 droplet fluorescence emission using a custom two-channel (520 and 570 nm) confocal mi-
334 croscope with laser excitation (488 nm, 20 mW, OBIS-488 20LS, Coherent Inc., Santa Clara,
335 CA). A data acquisition board (DAQ, NI, USB-6341, National Instruments) was used to
336 digitize PMT signal, which was binned into counts, and in-house LabView code was used
337 to control acquisition and execute droplet sorting decisions. Signal was smoothed in real-
338 time using median-filter smoothing (width = 3). Droplets were identified by the 570 nm
339 channel signal and the maximum signal in the 520 nm channel (max = countsn-1 when
340 countsn <countsn-1) was set as the droplet peak value. A roaming sort threshold was
342 the 520 nm channel. The threshold was calculated as µ - 5σ, where µ andσ were the mean
343 and standard deviation of the previous 300 droplets’ fluorescence values, respectively. Hit
344 droplets were not included in the calculation of droplet mean and standard deviation. A […]

SMILES | k class PCSK9-FS
Cc1cccc2ccnc(N(C(=O)[C@H]3CCCN(C(=O)c4cccc5c(C#N)c[nH]c45)C3)[C@@H]3CCCNC3)c12 [Compound 8] | 0
Cc1cccc2ccnc(N(C(=O)C3CCN(C(=O)c4cccc5c(C#N)c[nH]c45)CC3)[C@@H]3CCCNC3)c12 [Compound 9] | 18
